Columns and labels:
[1] = test system: COLO 205 (Human Colorectal Adenocarcinoma Cell Line) tumors; assay: COLO 205 mouse tumor model; format: in vivo, mice
Description: Briefly, 2×10^6COLO 205 cells in 100 μl of serum-free medium were injected subcutaneously into the flank of 6-8 week old male NCr nude mice (Taconic, Hudson, N.Y.). After tumor volumes reached an average of about 150 mm^3, mice were randomized into groups for treatment with antibody or Fc protein. Mice in each treatment group were administered an anti-Ang-2 antibody or Fc protein at a concentration of 4 mg/kg via intraperitoneal injection twice per week for approximately two weeks. Tumor volumes were measured twice per week over the course of the experiment and tumor weights were measured upon excision of tumors at the conclusion of the experiment. Averages (mean+/−standard deviation) of tumor weight and growth were calculated for each treatment group. “Avg. Tumor Growth” represents the average growth from the time of treatment initiation (when tumors were approximately 150 mm^3). Percent decrease of tumor weight and growth are calculated from comparison to Fc protein measurements.
A similar experiment was carried out to assess the effect of H1H685P, in particular, on COLO 205 tumor growth. Briefly, 2×10^6 COLO 205 cells in 100 μl of serum-free medium were implanted subcutaneously into the right hind flank of 9-11 week-old male SCID CB17 mice. When the tumors reached ˜125 mm^3, mice were randomized into 5 groups (n=7-8 mice/group) and treated twice per week with Fc protein (15 mg/kg), H1H685P (5 or 25 mg/kg) or Control II (5 or 25 mg/kg) for a period of 19 days. Tumor volumes were measured twice per week over the course of the experiment and tumor weights were measured upon excision of tumors at the end of the experiment. Averages of tumor weight and growth from the beginning of treatment were calculated for each group. Percent decrease of tumor weight and growth are calculated from comparison to the Fc control group.
To determine the effect of combining an anti-Ang-2 antibody with a VEGF inhibitor on the growth of COLO 205 xenografts, 2×10^6 cells were implanted subcutaneously into the right hind flank of 6-8 week-old female SCID mice. When the tumors reached an average volume of ˜350 mm^3, mice were randomized into 4 groups (n=6 mice/group) and treated with: human Fc protein (7.5 mg/kg), H1H685P (5 mg/kg), VEGF Trap (see U.S. Pat. No. 7,087,411) (2.5 mg/kg) or the combination of H1H685P+VEGF Trap. Mice were given a total of 3 doses over 10 days of treatment. Tumor volumes were measured twice per week over the course of the experiment. Averages of tumor growth from the start of treatment (mean+/−standard deviation) were calculated for each treatment group. Percent decrease of tumor growth was calculated from comparison to the Fc control group.
To test the effect of H1H685P in combination with a chemotherapeutic agent on tumor growth, 2.5×10^6 COLO 205 tumor cells were implanted subcutaneously into the right hind flank of 8-9 week-old male SCID mice. When the tumors reached an average volume of ˜150 mm^3 (day 17 after implantation), mice were randomized into 4 groups (n=5 mice/group) and treated as follows: the first group was treated sc with 15 mg/kg hFc and intraperitoneally (ip) with 5-FU vehicle; the second group was treated sc with 15 mg/kg of H1H685P; the third group was treated ip with 75 mg/kg of 5-FU; the fourth group was treated with the combination of 15 mg/kg H1H685P sc plus 75 mg/kg 5-FU ip. Mice received a total of three treatments, administered every 3-4 days. Tumor volumes were measured twice per week over the course of the experiment. Average (mean+/−standard deviation) tumor growth from the beginning of treatment until day 38 was calculated for each group. Percent decrease of tumor growth was calculated from comparison to the control group.

MMT tumors = assay: MMT tumor growth in SCID mice; format: in vivo; conditions: H1H685P 12.5 mg/kg, VEGF Trap 5 mg/kg
Description: To provide additional evidence of combination efficacy, the effect of the H1H685P+VEGF Trap combination on the growth of MMT tumors was assessed. 0.5×10^6 MMT cells were implanted subcutaneously into the right hind flank of 6-8 week-old female SCID mice. […] The Fc and H1H685P groups were given 3 doses over 9 days. The VEGF Trap and combination groups were given 4 doses over 12 days. Tumor volumes were measured twice per week over the course of the experiment and tumor weights were measured upon excision of tumors at the end of the experiment (due to their large size, tumors from the Fc and H1H685P groups were collected 3 days before tumors from the VEGF Trap and combination groups). Averages (mean+/−standard deviation) of tumor growth from the beginning of treatment and of tumor weight were calculated for each group. Percent decrease of tumor weight and growth are calculated from comparison to the Fc control group.

[2] = test system: COLO 205 tumor vessel perfusion; assay: Tumor perfusion by contrast-enhanced micro-ultrasound, COLO 205 tumors; format: in vivo, mice; conditions: treated for 24 hrs
Description: To determine whether the combination of H1H685P+VEGF Trap has a greater effect on tumor vessel function than the single agents, a micro-ultrasound (VisualSonics' Vevo 770 imaging system) was used to assess changes in tumor perfusion. COLO 205 tumors were grown to ˜125 mm^3 and mice were then treated for 24 hrs with H1H685P, VEGF Trap or the combination of both agents. Following treatment, tumor vessel perfusion was determined based on contrast-enhanced micro-ultrasound 2D image acquisition and analysis of a “wash-in” curve, which represents the amount of contrast agent entering the tumor. Average (mean+/−standard deviation) tumor perfusion was calculated for each group. Percent decrease was calculated from comparison to the Fc control group.

[3] = COLO 205, male SCID mice, H1H685P 15 mg/kg sc, 5-FU 75 mg/kg ip, three treatments, until day 38
[4] = COLO 205, female SCID mice, H1H685P 5 mg/kg, VEGF Trap 2.5 mg/kg, 3 doses over 10 days

O=c1[nH]cc(F)c(=O)[nH]1 [Antibody 5-FU, 5-FU, reference compound]
% Decrease in Tumor Growth [1, 3]: 45%
Avg Tumor Growth [1, 3]: 313 ± 60 mm^3

VEGF Trap: VEGF-inhibiting fusion protein: VEGF receptor extracellular domains fused to the Fc portion of human IgG1 [reference compound]
% Decrease in Tumor Growth [1, 4]: 117%
Avg Tumor Growth [1, 4]: −62 ± 44 mm^3
Tumor regression (in words) ([1]; COLO 205, female SCID mice, end vs beginning of treatment): tumor regression was observed
% Decrease in Tumor Growth (MMT tumors): 60%
% Decrease in Tumor Weight (MMT tumors): 44%
Avg Tumor Growth (MMT tumors): 536 ± 179 mm^3
Avg Tumor Weight (MMT tumors): 0.889 ± 0.141 g
Relative Tumor Perfusion ([2]; mean ± SD): 6.99 ± 1.36
% Decrease in Tumor Perfusion ([2]; vs Fc control): 14%

Source: patent US9926369B2, “Methods for treating hepatocellular cancer by administering an anti-Ang-2 antibody” (Regeneron Pharmaceuticals, Inc., priority 2009, dated 2018)
